In one series the test system is Actinomyces viscosus. Description: Minimum concentration which will completely inhibit growth, Actinomyces viscosus. The format is cell-based. Conditions: A.viscosus, growth medium, read-out: Min. Conc. (minimum concentration which will completely inhibit growth).
Another series deals with S. mutans. Kind of series: Minimum concentration which will completely inhibit growth, S. mutans. The format is cell-based. The settings on record: Streptococcus mutans, procedure of Example 6. As to the method: 5-n-octanoyl-2',3',4',5',6'pentafluorosalicylanilide is tested for effectiveness against S. mutans essentially in accordance with the procedure of Example 6.
The next series relates to S.sanguis. Kind of series: Plaque growth inhibition in vitro on bovine tooth slabs, S.sanguis. The format is cell-based, Streptoccus sanguis. Conditions: for IC50: 2 min slab exposure, about 24 h incubation, anaerobic, reliability + or -80% or better; for % Inhibition @ Mol.Conc.: @ 1 × 10^-3 Mol.Conc. As to the method: (§1) The composition prepared in example 2 above is tested in vitro for plaque inhibition in comparison with prior art compounds. The test used is set forth in detail in Comparison of Antiplaque Agents Using an In Vitro Assay Reflecting Oral Conditions by R. T. Evans et al, Journal of Dental Research, June 1977.
(§2) In summary bovine mandibles, obtained immediately after slaughter, are cut into 4×8 mm slabs and sterilized in a 0.15 M NaCl solution buffered at a pH of 7.5 with 0.02 M sodium phosphate (PBS soln.) Before use the slabs are coated with sterile saliva and then rinsed twice in sterile PBS. The slabs are then placed in small plastic petri dishes containing various concentrations of the compositions to be tested. The test solution used in accordance is a solution of the composition in a mixture of 20% by volume of ethanol, 40% by volume of propylene glycol and 40% by volume of a pH 8 aqueous buffer solution containing mono and di sodium phosphates. The slabs are left in the solution of the composition for two minutes and then rinsed in sterile PBS solution. After rinsing, each slab is placed in a 10×75 mm cotton stoppered glass culture tube containing 1 ml of sucrose-broth culture medium which is then innoculated with a 24 hour culture of the desired microorganism standardized to an optical density (OD) 540 of 1.0 for A. naeslundii and S. sanguis and of 0.75 for A. viscosus and S. mutans. 50 μl of the inoculation medium is used. A. viscosus is incubated under aerobic conditions and the others are incubated under anaerobic conditions (5% CO2 and 95% H2). After incubation for about 24 hours the nonadherent organisms are removed and the tube is rinsed twice with 0.5 ml of PBS and the washings combined with the nonadherent organisms.
(§3) The tooth slabs are then transferred to 1 ml of 0.1 N NaOH and 1 ml of 0.1 N NaOH is also added to the glass culture tubes. The slabs and tubes are then sonically agitated, if necessary to suspend the adherent organisms. The optical density of each of the three fractions is then measured on a spectophotometer. The tests are repeated with varying concentrations of the compositions being tested until growth inhibition curves can be developed. The 50% growth inhibition dosages (ID50) are then determined with a reliability of + or -80% or better.

The subject of series [1] is S.mutans. Kind of series: Plaque growth inhibition in vitro on bovine tooth slabs, S.mutans. Type of series: cell-based, Streptococcus mutans. Conditions: for IC50: Streptococcus mutans, 2 min slab exposure, about 24 h incubation, anaerobic, reliability + or -80% or better. The procedure:
as §1, §2, §3

Another series deals with Staphylococcus aureus. Description: Minimum concentration to completely inhibit growth, Staphylococcus aureus. The format is cell-based. The settings on record: procedure of Example 6. The procedure: AN-10 is tested for effectiveness against the bacterium Staphylococcus aureus in accordance with the procedure set forth in Example 6.
The subject of series [2] is S.mutans. Description: Bactericidal effects against established dental plaque (nichrome wires), S.mutans. The settings on record: Streptococcus mutans, 2 min, read-out: Minimum Concentration Required for Complete Bactericidal Effect. The format is cell-based. The procedure:
(§4) In vitro plaques are grown on no. 20 nichrome wires by fixing the wires to culture tube closures to suspend the wires into a complex culture medium supplemented with 5% by wt of sucrose and 0.005% sodium carbonate. Separate cultures are initially inoculated with A.viscosus and S.mutans and the wires are transferred daily to fresh medium until the wire-adherent microorganisms form well established plaques. All cultures are incubated at 37 degrees C. Plaque coated wires are then immersed in a solution of composition to be tested. The compositions tested are AN-10 and Chlorhexidine. The immersion time is two minutes. The solution in which the composition is dissolved is the same solution used to dissolve the composition in the previous example. The plaque is then rinsed with distilled water and transferred to fresh medium. The lack of growth in the fresh medium is considered as an indication that the microorganisms have been killed. Further plaque coated wires are treated as previously described until sufficient information is obtained to determine the minimum concentration of composition required to kill the microorganisms.

Series [3] deals with A.viscosus. Description: Plaque growth inhibition in vitro on bovine tooth slabs, A.viscosus. Type of series: cell-based, Actinomyces viscosus. The settings on record: for IC50: Actinomyces viscosus, 2 min slab exposure, about 24 h incubation, aerobic, reliability + or -80% or better. The procedure:
as §1, §2, §3

Series [4] relates to A.viscosus. Description: Bactericidal effects against established dental plaque (nichrome wires), A.viscosus. Type of series: cell-based. Conditions: Actinomyces viscosus, 2 min, read-out: Minimum Concentration Required for Complete Bactericidal Effect. The procedure:
as §4

Series [5] is described as follows: Acute oral toxicity of AN-10 (single dose, gavage). The format is in vivo. The procedure: Sixteen female white rats averaging 265 grams in weight were fasted overnight and divided into four groups of four animals each. In one group each animal received, by gavage tube, 4 ml of an aqueous solution of 1% methylcellulose, the drug delivery vehicle. This group was the control group. The remaining three groups received doses of 50, 750, and 2000 mg/kg of AN-10 in 4-ml aqueous suspension, respectively.
This animal had received the 50 mg/kg dose.
From this experiment it can be concluded that the LD50 for AN-10 by the single dose oral route is greater than 2000 mg/kg in Osborne-Mendel white rats.

The subject of the next series is A.naeslundii. Kind of series: Plaque growth inhibition in vitro on bovine tooth slabs, A.naeslundii. Conditions: for IC50: Actinomyces naeslundii, 2 min slab exposure, about 24 h incubation, anaerobic, reliability + or -80% or better. The format is cell-based, Actinomyces naeslundii. As to the method:
as §1, §2, §3

For series [6] the following is noted: background statement; cited from earlier work.
[7] abbreviates: S.mutans established plaque, immersion time two minutes.
Where [8] appears, read: A.viscosus established plaque, immersion time two minutes.

Converted amounts (≈) assume the structure as drawn. Like-named read-outs stand apart in the source and are kept apart here.

`CCCCCCCCCC(=O)c1ccc(O)c(C(=O)Nc2ccc(Br)cc2)c1` [5-n-decoyl-4'-bromosalicylanilide]: the MIC in the series with Actinomyces viscosus worked out at 0.125 mg/L (≈ 0.28 µM).
Consider `CCCCCCCCCCCC(=O)c1ccc(O)c(C(=O)Nc2cccc(C(F)(F)F)c2)c1` [5-n-dodecoyl-3'-trifluoromethylsaliclyanilide], for which the MIC in the series with Actinomyces viscosus lay within 0.5 to 1 mg/L (≈ 1.08 to 2.16 µM).
As to `CCCCCCCCCCCC(=O)c1ccc(O)c(C(=O)Nc2ccc(Br)cc2)c1` [5-n-dodecoyl-4'-bromosalicylanilide], the MIC with Actinomyces viscosus is 0.05 mg/L (≈ 0.105 µM).
`CCCCCCCCCCCC(=O)c1ccc(O)c(C(=O)Nc2ccc([N+](=O)[O-])cc2)c1` [5-n-dodecoyl-4'-nitrosalicylanilide]: the MIC in the series on Actinomyces viscosus was 0.05 mg/L (≈ 0.113 µM).
In turn, `CCCCCCCC(=O)c1ccc(O)c(C(=O)Nc2c(F)c(F)c(F)c(F)c2F)c1` [5-n-octanoyl-2',3',4',5',6'pentafluorosalicylanilide] had an MIC against S. mutans of roughly 0.5 mg/L (≈ 1.16 µM).
For `CCCCCCCC(=O)c1ccc(O)c(C(=O)Nc2ccc([N+](=O)[O-])cc2)c1` [5-n-octoyl-4'-nitrosalicylanilide], the MIC with Actinomyces viscosus came out at 0.125 mg/L (≈ 0.325 µM).
With `CCCCCCCCCC(=O)c1ccc(O)c(C(=O)Nc2ccc([N+](=O)[O-])cc2)c1` [AN-10, 5-n-decanoyl-4'-nitrosalicylanilide], the IC50 in the series with S.sanguis (read-out: ID50 Adherent Growth) was 670 µM; with S.sanguis (read-out: ID50 Total Growth), 370 µM; in the series on S.mutans [1] (read-out: ID50 Adherent Growth), 23000 µM; in the series on S.mutans [1] (read-out: ID50 Total Growth), 1600 µM; in the series with A.viscosus [3] (read-out: ID50 Adherent Growth), 70 µM; in the series with A.viscosus [3] (read-out: ID50 Total Growth), 73 µM. Moreover, the IC50 with A.naeslundii (read-out: ID50 Adherent Growth) came out at 43 µM; in the series on A.naeslundii (read-out: ID50 Total Growth) it was 83 µM. For the same compound, the “% Inhibition @ Mol.Conc.” value was 86% with S.sanguis, 59% in the series with S.mutans [1] (@ 1 × 10^-3 Mol.Conc.), 96% in the series with A.viscosus [3] (@ 1 × 10^-4 Mol.Conc.) and 96% with A.naeslundii (@ 3.3 × 10^-4 Mol.Conc.). In addition, the MIC in the series on Staphylococcus aureus is less than 10 mg/L. For the same compound, the values for the MBC in the series on S.mutans [2] (setting [7]) and in the series on A.viscosus [4] (setting [8]) were 62.5 mg/L (≈ 152 µM) and 125 mg/L (≈ 303 µM), respectively. The “deaths within the first week following single dose” value in series [5] (50, 750 and 2000 mg/kg oral, four rats each, the one death (50 mg/kg) attributed to trauma of administration) is reported as “only one animal died”. For the same compound, the median lethal dose (LD50) in [5] (rat, in vivo, single dose oral route, female Osborne-Mendel white rats) is greater than 2000 mg/kg.
Turning to `[H]/N=C(\N/C(=N/[H])NCCCCCCNC(=N)NC(=N)Nc1ccc(Cl)cc1)Nc1ccc(Cl)cc1` [CLHX, Chlorhexidine], the IC50 with S.sanguis (read-out: ID50 Adherent Growth) was 85000 µM; in the series on S.sanguis (read-out: ID50 Total Growth) it was 390 µM; in the series with S.mutans [1] (read-out: ID50 Adherent Growth), 97 µM; in the series on S.mutans [1] (read-out: ID50 Total Growth) it was 86 µM; with A.viscosus [3] (read-out: ID50 Adherent Growth), 29 µM; in the series on A.viscosus [3] (read-out: ID50 Total Growth), 23 µM. Besides, the IC50 in the series with A.naeslundii (read-out: ID50 Adherent Growth) amounted to 5100 µM; with A.naeslundii (read-out: ID50 Total Growth) it was 4400 µM. In addition, the “% Inhibition @ Mol.Conc.” value is 70% in the series on S.sanguis, 95% in the series on S.mutans [1] (@ 1 × 10^-3 Mol.Conc.), 85% with A.viscosus [3] (@ 1 × 10^-3 Mol.Conc.) and 78% in the series with A.naeslundii (@ 1 × 10^-3 Mol.Conc.). For the same compound, the MBC in the series on S.mutans [2] (setting [7]) is 250 mg/L (≈ 495 µM); in the series on A.viscosus [4] (setting [8]), 500 mg/L (≈ 989 µM).
For `O=C(Nc1cccc(C(F)(F)F)c1)c1cc(Br)cc(Br)c1O` [SBF-1, Fluorophene], the “% Inhibition @ Mol.Conc.” value is on record as 86% in the series on S.mutans [1] (@ 2 × 10^-3 Mol.Conc.) and 65% in the series on A.viscosus [3] (@ 3.3 × 10^-3 Mol.Conc.).
As to `O=C(Nc1ccc(Br)cc1)c1cc(Br)cc(Br)c1O` [TBS, Tribromosalan], the “% Inhibition @ Mol.Conc.” value was 46% in the series on S.sanguis, 46% with S.mutans [1] (@ 1.5 × 10^-3 Mol.Conc.), 53% in the series on A.viscosus [3] (@ 1 × 10^-3 Mol.Conc.) and 86% in the series with A.naeslundii (@ 1.5 × 10^-3 Mol.Conc.). Besides, the MBC with S.mutans [2] came out at 1000 mg/L (≈ 2220 µM); with A.viscosus [4], 500 mg/L (≈ 1110 µM).
As to tetrachlorosalicylanilide, in series [6], the “allergic reactions in man” value is “allergic reactions in man”.

By LD50 is commonly meant the dose at which mortality reaches 50%. Read a high LD50 as lower toxicity.

(Values after patent US4287191A, “Novel salicylanilides and microbiocidal compositions and uses thereof” (The Research Foundation of State University of New York, priority 1980, dated 1981).)
